Reference: US8501215B2, “Injectable multimodal polymer depot compositions and uses thereof” (priority 2002, dated 2013)
Structures can show the parent of a compound that is named as a salt.

Tests used:
[1] = Saturation concentration of bupivacaine hydrochloride in de-ionized water; type: physicochemical
Procedure: Bupivacaine hydrochloride (Sigma-Aldrich Corporation, St. Louis, Mo.) was dissolved in de-ionized (DI) water at a concentration of 40 mg/ml (saturation). A calculated amount of sodium hydroxide (in the form of 1 N solution) was added to the solution and the pH of the final mixtures was adjusted to ten to precipitate the Bupivacaine base. The precipitated product was filtered, and further washed with DI water for at least three times. The precipitated product was dried at ca. 40° C. in vacuum for 24 hours.

[2] = cited from earlier work

SMILES | concentration in de-ionized (DI) water (saturation) [1] [µg/mL] | reported solubility in water [2]
CCCCN1CCCCC1C(=O)Nc1c(C)cccc1C (centres unmarked) [Bupivacaine hydrochloride] | 40000 | –
CC(=O)OCC(COC(C)=O)OC(C)=O [triacetin] | – | 7.17 grams in 100 ml of water
